Data: patent US20110172193A1, “PRO-DRUGS OF (E)-7-(3-(2-AMINO-1-FLUOROETHYLIDENE)PIPERIDIN-1-YL)-1-CYCLOPROPYL-6-FLUORO-8-METHOXY-4-OXO-1,4-DIHYDROQUINOLINE-3-CARBOXYLIC ACID” (priority 2010, published 2011)
Converted amounts (≈) assume the structure as drawn. Like-named read-outs stand apart in the source and are kept apart here.

How the values were obtained:
[1] = Aqueous solubility, modified procedure (saturated solutions, RP-HPLC); assay type: physicochemical; conditions: thermodynamic from solid, 100 mM phosphate buffer
Experimental: In these cases, the samples were targeted at a pH of 4 and 7 and were measured exclusively using 100 mM phosphate buffers. For both pH's, measured samples were initially prepared at ˜3 mg/ml and ˜10 mg/ml concentrations and for samples that dissolved rapidly, additional compound was added to the solution until saturated solutions were obtained.

[2] = In vitro bioconversion of pro-drug to parent drug in mouse blood, plasma, liver and kidney extract; assay type: in vitro ADME; conditions: for Peak Area of pro-drug: 37° C. heating block
Experimental: Compound concentrations were normalized to parent drug content by multiplying by a ratio of the relative molecular weights. Time 0 (minute) samples were prepared by immediately diluting with an equal volume of acetonitrile, vortexing, and transferring the samples to ice. […] Representative compounds of the present invention and the parent compound were analyzed by reversed-phase HPLC using an Agilent 1100 system. […] The solvent flow rate was 1 mL/min, and the column temperature was 40° C. Compound and parent peak identification was by diode array detection, monitored at 300 nm Conversion of the compounds (prodrugs) to parent drug was estimated by peak areas (A300 nm, mAU) of the respective agents. Mouse whole blood and plasma were collected from Swiss Webster mice, and stored at 4° C. until use (within 48 hours). […] For these experiments, fresh whole mouse livers or kidneys were homogenized for approximately 30 seconds (Omni-Tip™ disposable homogenizer tip) in 1 mL sterile saline and immediately stored on ice. Crude extracts (non-centrifuged) were incubated with the test compound or parent (20 μg/mL) and processed as described above.

[3] = In vitro bioconversion of pro-drug to parent drug in human blood and plasma; assay type: in vitro ADME; conditions: for Peak Area of pro-drug: 37° C.; for Conversion to the parent compound (summary in words): human whole blood and plasma
Experimental: Compounds #1, #4, #6, #15, and #16, as well as the parent drug [(E)-7-(3-(2-amino-1-fluoroethylidene)piperidin-1-yl)-1-cyclopropyl-6-fluoro-8-methoxy-4-oxo-1,4-dihydroquinoline-3-carboxylic acid] (the compound of formula (M)) were dissolved to 1 mg/mL, and diluted to 20 ng/mL in fresh, chilled (4° C.) human or mouse whole blood or plasma, or kidney and liver extract (prepared from the respective fresh mouse organs as described below). Compound concentrations were normalized to parent drug content by multiplying by a ratio of the relative molecular weights. Time 0 (minute) samples were prepared by immediately diluting with an equal volume of acetonitrile, vortexing, and transferring the samples to ice. For additional time points, samples were placed in an incubator (Tables 4 and 5), or in a heating block (Tables 6-12) at 37° C. for the indicated time, then immediately vortexed with an equal volume of acetonitrile and placed on ice. Samples were centrifuged and further diluted with an equal volume of water to a final concentration of 25% acetonitrile prior to analysis by HPLC; diluted samples were retained in the cooled (4° C.) HPLC sample injection chamber pending injection.
Representative compounds of the present invention and the parent compound were analyzed by reversed-phase HPLC using an Agilent 1100 system. Samples were injected onto a Zorbax SB-C18 column (3.5 μM, 4.6×150 mm) with a guard cartridge, and developed on a gradient of 15% aqueous acetonitrile in 0.1% trifluoroacetic acid to 85% aqueous acetonitrile in 0.1% trifluoroacetic acid over 10 minutes. The solvent flow rate was 1 mL/min, and the column temperature was 40° C. Compound and parent peak identification was by diode array detection, monitored at 300 nm Conversion of the compounds (prodrugs) to parent drug was estimated by peak areas (A300 nm, mAU) of the respective agents.
For studies with Compounds #1, #4 and #6 (with results as listed in Tables 8, 9 and 10), fresh human whole blood and plasma samples were purchased from BioChemed Services, shipped in Styrofoam coolers maintained with frozen cold packs, and used within 48 hours of receipt. For studies with Compounds #15 and #16 (with results as listed in Tables 11 and 12), blood was drawn from volunteers and whole blood samples and isolated plasma prepared and immediately placed on ice. Whole blood and plasma samples were maintained at 4° C. and used within approximately 30 hours.

[4] = tested on: Staphylococcus aureus (OC8525), a methicillin-resistant strain (MRSA); assay: In vivo efficacy in a mouse systemic infection model
Experimental: Female Swiss Webster mice weighing between 20-25 g were infected intraperitoneally with approximately 5×10^5 colony forming units (CFU) Staphylococcus aureus (OC8525), a methicillin-resistant strain (MRSA), in 7% mucin. One hour later, the animals were given the test compound intravenously or orally in a dose volume of 0.2 mL. Each animal test group consisted of eight animals. The test compounds were prepared immediately before dosing in 5% dextrose in water (D5W) and diluted further in D5W for i.v. and p.o. administration. The mice were observed over a three day period and ED50 values were calculated from the resulting % survival curves (see Table 13, below). The measured ED50 values were normalized to the content of (E)-7-(3-(2-amino-1-fluoroethylidene)piperidin-1-yl)-1-cyclopropyl-6-fluoro-8-methoxy-4-oxo-1,4-dihydroquinoline-3-carboxylic acid. For some compounds, in vivo efficacy was determined by testing a group of eight mice at a single dose level only. In these cases, the data presented in Table 13, below are reported as percent survival at the designated dose.

Rat pharmacokinetics = assay type: in vivo, Sprague-Dawley rats; conditions: iv
Experimental: Male Sprague-Dawley rats (n=4) were fasted overnight, then dosed intravenously (IV) with a 1 mg/mL solution of a compound of the present invention (prodrug) or parent (compound of formula (M)) in 20% hydroxypropyl-β-cyclodextrin at 2 mg/kg. Blood samples were collected up to 24 hours post dose into tubes containing an anticoagulant. Blood samples were centrifuged for cell removal, and 100 μL plasma was transferred to a clean vial, placed on dry ice, and stored in a −70° C. freezer prior to analysis.
Plasma samples were prepared as follows. Two volumes of acetonitrile containing formic acid and internal standard were added to one volume of plasma to precipitate proteins. Samples were centrifuged (3000 g for 5 min) and supernatant removed for analysis by LC-MS-MS. Calibration standards were prepared by adding appropriate volumes of stock solution directly into plasma and treated identically to collected plasma samples. LC-MS-MS analysis was performed utilizing multiple reaction monitoring for detection of characteristic ions for the test compounds (pro-drugs), parent (compound of formula (M)) and internal standard.
Plasma concentrations were measured as described above to determine a concentration vs time profile. The area under the plasma concentration vs time curve (AUC) was calculated using the linear trapezoidal method. Fitting of the data to obtain pharmacokinetic parameters was carried out using non-compartmental analysis, with results as listed in Table 14, below. The term “NA” means the data was not available.

[5] = Solubility of parent compound in citrate buffer (HPLC); assay type: physicochemical; conditions: aqueous buffer, thermodynamic from solid, 50 mM citrate buffer
Experimental: The solubility of the parent compound (the compound of formula (M), also known as ((E)-7-(3-(2-amino-1-fluoroethylidene)piperidin-1-yl)-1-cyclopropyl-6-fluoro-8-methoxy-4-oxo-1,4-dihydroquinoline-3-carboxylic acid), was determined in a separate experiment, in which solutions containing 50 mM citrate buffer at various pH were added to the solid compound at various target concentrations. The samples were mixed overnight and the pH measured with a Beckman φ360 pH/Temp/mV Meter. The samples were then filtered using nylon centrifuge filters. The supernatant was diluted and the concentration was measured with HPLC.

[6] = pH 4, aqueous buffer, read-out: Aqueous Solubility pH~4
[7] = pH 7, aqueous buffer, read-out: Aqueous Solubility pH~7
[8] = fresh human blood (volunteers), 0 min
[9] = fresh human blood (volunteers), 5 min
[10] = fresh human blood (volunteers), 7.5 min
[11] = fresh human blood (volunteers), 10 min
[12] = fresh human blood (volunteers), 15 min
[13] = fresh human blood (volunteers), […]
[14] = fresh human plasma (volunteers), 0 min
[15] = fresh human plasma (volunteers), 5 min
[16] = fresh human plasma (volunteers), 7.5 min
[17] = fresh human plasma (volunteers), 10 min
[18] = fresh human plasma (volunteers), 15 min
[19] = fresh human plasma (volunteers), […]
[20] = Staphylococcus aureus, 72 h, Swiss Webster mice infected i.p. with MRSA, oral dose 1 h later, 3 day survival, normalized to parent content, read-out: ED50 p.o.
[21] = Staphylococcus aureus, iv, 72 h, Swiss Webster mice infected i.p. with MRSA, i.v. dose 1 h later, 3 day survival, normalized to parent content, read-out: ED50 i.v.
[22] = Sprague-Dawley, in vivo, male rats, 2 mg/kg i.v., analyte: the administered compound itself

SMILES | solubility at 18 h [1, 6] [mg/mL] | solubility at 18 h [1, 7] [mg/mL] | Peak Area of pro-drug ([2]; fresh mouse blood, 0 min) [mAU] | Peak Area of pro-drug ([2]; fresh mouse blood, 5 min) [mAU] | Peak Area of pro-drug ([2]; fresh mouse blood, 7.5 min) [mAU] | Peak Area of pro-drug ([2]; fresh mouse blood, 10 min) [mAU] | Peak Area of pro-drug ([2]; fresh mouse blood, 15 min) [mAU] | Peak Area of pro-drug ([2]; fresh mouse blood, […]) [mAU] | Peak Area of pro-drug ([2]; fresh mouse plasma, 0 min) [mAU] | Peak Area of pro-drug ([2]; fresh mouse plasma, 5 min) [mAU] | Peak Area of pro-drug ([2]; fresh mouse plasma, 7.5 min) [mAU] | Peak Area of pro-drug ([2]; fresh mouse plasma, 10 min) [mAU] | Peak Area of pro-drug ([2]; fresh mouse plasma, 15 min) [mAU] | Peak Area of pro-drug ([2]; fresh mouse plasma, […]) [mAU] | Peak Area of pro-drug [3, 8] [mAU] | Peak Area of pro-drug [3, 9] [mAU] | Peak Area of pro-drug [3, 10] [mAU] | Peak Area of pro-drug [3, 11] [mAU] | Peak Area of pro-drug [3, 12] [mAU] | Peak Area of pro-drug [3, 13] [mAU] | other results
COc1c(N2CCC/C(=C(\F)CNC(=O)[C@@H]3CCCN3C(=O)[C@@H](N)CCCCN)C2)c(F)cc2c(=O)c(C(=O)O)cn(C3CC3)c12.Cl.Cl [Compound 15, 1-Cyclopropyl-7-[3-(2-{[(2S)-1-((2S)-2,6-diamino-hexanoyl)-pyrrolidine-2-carbonyl]-amino}-1-fluoro-ethylidene)-piperidin-1-yl]-6-fluoro-8-methoxy-4-oxo-1,4-dihydro-quinoline-3-carboxylic acid dihydrochloride] | > 4.6 | > 11.1 | 265 | 75 | 36 | 29 | 17 | 123 | 488 | 106 | 72 | 62 | 22 | 182 | 242 | 23 | 10 | 8 | 6 | 59 | Conversion to the parent compound (summary in words) ([2]; mouse whole blood and plasma): converted to the parent; Peak Area of pro-drug [3, 14]: 330 mAU; Peak Area of pro-drug [3, 15]: 26 mAU; Peak Area of pro-drug [3, 16]: 14 mAU; Peak Area of pro-drug [3, 17]: 10 mAU; Peak Area of pro-drug [3, 18]: 11 mAU; Peak Area of pro-drug [3, 19]: 75 mAU; Conversion to the parent compound (summary in words) [3]: converted to the parent; ED50 [4, 20]: > 13 mg/kg; ED50 [4, 21]: 1.6 mg/kg; Conversion to the parent drug in vivo (in words) (Rat pharmacokinetics; in vivo): rapidly converted to the parent drug
COc1c(N2CCC/C(=C(\F)CNC(=O)CNC(=O)[C@@H](N)CCC(=O)O)C2)c(F)cc2c(=O)c(C(=O)O)cn(C3CC3)c12.Cl [Compound 16, 7-(3-{2-[2-((2S)-2-Amino-4-carboxy-butyrylamino)-acetylamino]-1-fluoro-ethylidene}-piperidin-1-yl)-1-cyclopropyl-6-fluoro-8-methoxy-4-oxo-1,4-dihydro-quinoline-3-carboxylic acid hydrochloride] | > 3.69 | > 3.36 | 332 | 131 | 99 | 71 | 34 | 174 | 406 | 220 | 178 | 149 | 98 | 285 | 370 | 332 | 342 | 374 | 359 | 336 | Conversion to the parent compound (summary in words) ([2]; mouse plasma): converted to an unknown metabolite, but not substantially to the parent drug; Conversion to the parent compound (summary in words) ([2]; mouse whole blood): converted to the parent in mouse whole blood via the intermediacy of a metabolite of unknown identity; Peak Area of pro-drug [3, 14]: 351 mAU; Peak Area of pro-drug [3, 15]: 355 mAU; Peak Area of pro-drug [3, 16]: 366 mAU; Peak Area of pro-drug [3, 17]: 372 mAU; Peak Area of pro-drug [3, 18]: 371 mAU; Peak Area of pro-drug [3, 19]: 350 mAU; Conversion to the parent compound (summary in words) [3]: not measured to convert to the parent drug; ED50 [4, 20]: > 13.9 mg/kg; ED50 [4, 21]: 1.6 mg/kg; Conversion to the parent drug in vivo (in words) (Rat pharmacokinetics; in vivo): rapidly converted to the parent drug
COc1c(N2CCC/C(=C(\F)CN)C2)c(F)cc2c(=O)c(C(=O)O)cn(C3CC3)c12 [Compound (M), (E)-7-(3-(2-amino-1-fluoroethylidene)piperidin-1-yl)-1-cyclopropyl-6-fluoro-8-methoxy-4-oxo-1,4-dihydroquinoline-3-carboxylic acid] |  |  |  |  |  |  |  |  |  |  |  |  |  |  |  |  |  |  |  |  | solubility ([5]; pH 4.11, mixed overnight): 0.14 mg/mL (≈ 334 µM); solubility ([5]; pH 6.75, mixed overnight): 0.04 mg/mL (≈ 95.4 µM); ED50 ([4]; administered i.v., mouse MRSA systemic infection): 0.71 mg/kg/day; ED50 ([4]; administered p.o., mouse MRSA systemic infection): 10.6 mg/kg/day; AUC (Rat pharmacokinetics; [22]): 0.718 µg·h/mL; Cmax (Rat pharmacokinetics; [22]): 0.805 µg/mL; clearance (Rat pharmacokinetics; [22]): 2.83 L/h/kg; Vd (Rat pharmacokinetics; Sprague-Dawley, in vivo, male rats, 2 mg/kg i.v., analyte: the administered compound itself, read-out: Vss): 6.08 L/kg; half-life (Rat pharmacokinetics; Sprague-Dawley, plasma, male rats, 2 mg/kg i.v., analyte: the administered compound itself): 1.5 h
